Source: paper PMC4839156, “A bioavailable cathepsin S nitrile inhibitor abrogates tumor development” (Molecular Cancer, 2016)

Assays:
Assay type in all cases: biochemical
cathepsin V = target: T1, cathepsin V (Homo sapiens, UniProt O60911); test: recombinant enzyme, fluorogenic substrate Cbz-FR-AMC, Morrison plot Ki
T1 construct: gene CTSV

cathepsin L = target: T2, cathepsin L (Homo sapiens, UniProt P07711); test: recombinant enzyme, fluorogenic substrate Cbz-FR-AMC, Morrison plot Ki (limited activity)
T2 construct: gene CTSL

cathepsin B = target: T3, cathepsin B (Homo sapiens, UniProt P07858); test: recombinant enzyme, fluorogenic substrate Cbz-RR-AMC, Morrison plot Ki
T3 construct: gene CTSB

cathepsin K = target: T4, cathepsin K (Homo sapiens, UniProt P43235); test: recombinant enzyme, fluorogenic substrate Cbz-FR-AMC, Morrison plot Ki
T4 construct: gene CTSK
T4 sequence (P43235 115-329): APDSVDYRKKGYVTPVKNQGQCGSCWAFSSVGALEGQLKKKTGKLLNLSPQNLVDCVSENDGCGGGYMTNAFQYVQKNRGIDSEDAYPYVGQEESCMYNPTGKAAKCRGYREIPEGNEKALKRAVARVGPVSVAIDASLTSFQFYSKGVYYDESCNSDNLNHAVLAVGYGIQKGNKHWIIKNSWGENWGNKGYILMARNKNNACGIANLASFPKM

cathepsin S = target: T5, cathepsin S (Homo sapiens, UniProt P25774); test: recombinant enzyme, fluorogenic substrate Cbz-VVR-AMC, Morrison plot Ki
T5 construct: gene CTSS
T5 sequence (P25774 115-331): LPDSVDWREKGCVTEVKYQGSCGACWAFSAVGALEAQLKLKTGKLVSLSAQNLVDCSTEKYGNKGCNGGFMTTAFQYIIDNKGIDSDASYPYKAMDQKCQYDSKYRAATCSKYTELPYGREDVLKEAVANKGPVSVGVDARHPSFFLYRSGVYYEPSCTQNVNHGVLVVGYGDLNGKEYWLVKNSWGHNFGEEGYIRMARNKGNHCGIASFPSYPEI

T1 sequence (O60911 114-334): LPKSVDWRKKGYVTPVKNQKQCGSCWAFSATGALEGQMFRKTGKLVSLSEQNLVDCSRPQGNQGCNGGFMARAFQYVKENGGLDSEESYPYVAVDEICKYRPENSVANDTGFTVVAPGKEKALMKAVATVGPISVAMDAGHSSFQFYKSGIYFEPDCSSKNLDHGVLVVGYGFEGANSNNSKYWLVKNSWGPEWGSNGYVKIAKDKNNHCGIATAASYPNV
T2 sequence (P07711 114-288): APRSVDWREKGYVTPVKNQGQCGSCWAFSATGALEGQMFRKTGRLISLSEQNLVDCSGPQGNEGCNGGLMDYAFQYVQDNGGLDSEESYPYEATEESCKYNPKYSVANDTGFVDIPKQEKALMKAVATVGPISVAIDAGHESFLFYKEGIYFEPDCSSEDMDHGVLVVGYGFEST
T2 sequence (P07711 292-333): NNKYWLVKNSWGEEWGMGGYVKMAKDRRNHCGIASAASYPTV

## CS(=O)(=O)C[C@H](N[C@@H](c1ccc(F)cc1)C(F)(F)F)C(=O)NC1(C#N)CC1 [compound 6]
Cathepsin V
  Ki: 784 nM
Cathepsin L
  Ki: 7870 nM
Cathepsin B
  Ki: 1940 nM
Cathepsin K
  Ki: 155 nM
Cathepsin S
  Ki: 2.71 nM
